We go through 4 compounds from paper PMC11234460, “In Silico Discovery of Stapled Peptide Inhibitor Targeting the Nur77‐PPARγ Interaction and Its Anti‐Breast‐Cancer Efficacy” (Advanced Science, 2024).

One series can be described thus: Solubility test in PBS. The class given is physicochemical. The conditions noted are these: 1 mg in 50 µL, gradient diluted from 20 to 0.078125 mg mL^−1, OD at 600 nm (turbidity), plate reader. As for the experimental part:
Mix 1 mg ST‐CY14 or Csn‐B (Shanghai Sunny Biotech) in 50 µL PBS buffer, and then transfer 40 µL the suspension to a 96‐well plate. The suspension was gradient diluted from 20 to 0. 07 8125 mg mL^−1. OD values were measured at 600 nm on a Cytation 5 (Biotek, USA) plate reader. PBS was set as a blank control.

In a further series the test system is α-chymotrypsin. Nature of the series: Protease stability in α-chymotrypsin solution. It is filed as in vitro ADME. The settings on record: α-chymotrypsin solution; α-chymotrypsin 0.5 ng µL^−1 in PBS (5 × 10^−2 M, 2 × 10^−3 M CaCl2, pH 7.4); 100 µL of 1 × 10^−3 M peptide + 1 mL enzyme; room temperature; 5-480 min; quenched with 1 M HCl; analytical HPLC at 214 nm. As for the experimental part: The peptides were dissolved in PBS (pH 7.4) to a final concentration of 1 × 10^−3 M. α‐Chymotrypsin was dissolved in PBS (5 × 10^−2 M, containing 2 × 10^−3 M CaCl2, pH 7.4) to a final concentration of 0.5 ng µL^−1. Subsequently, 100 µL peptides were incubated with α‐chymotrypsin (1 mL) at room temperature, and 100 µL of the digestion mixture was collected at different times (5/10/20/30/60/120/240/480 min) and added to a centrifuge tube containing 20 µL of 1 M HCl to quench the enzymatic reaction. The solution of α‐Chymotrypsin peptide fragments was monitored by analytical HPLC to determine the fraction of protease degradation at 214 nm.

For series [1], the system named is MCF7 cells. Nature of the series: Western blot of Nur77, CD36 and FABP4. It is filed as cell-based, human. As for the experimental part:
(§1) MCF7 and MDA‐MB‐231 cells were treated with various concentrations of peptide. The cells were then collected and lysed in NP40 lysis buffer. Total protein was quantified using a BCA assay kit (Beyotime, P0010S). The proteins were separated by SDS‐PAGE and transferred onto a PVDF membrane. The PVDF membrane was blocked in TBST containing 5% non‐fat milk, and then incubated with primary antibodies overnight at 4 °C. Subsequently, membranes were incubated with horseradish peroxidase‐conjugated antirabbit or antimouse IgG secondary antibody for 1 h at room temperature. The membranes were analyzed by a Tanon‐5200 Multi Gel Imaging Analysis System (Tanon) and quantified by ImageJ software.
A general note: A western blot detects proteins with antibodies after separation by electrophoresis.

Series [2] deals with MDA-MB-231 cells. Kind of series: Western blot of Nur77, CD36 and FABP4. It is filed as cell-based. As for the experimental part:
as §1

Series [3] deals with MCF7 cells. Nature of the series: Transwell cell migration analysis. It is filed as cell-based, human. The settings on record: MCF7, 12 h. On the procedure:
(§2) 600 µL DMEM complete medium was added to the lower chamber of the Transwell. Next, 2×10^4 cells in 100 µL DMEM medium, containing 1, 2, 5, 10, or 2 × 10^−5 M peptides, were added to the upper chamber of the Transwell. The cells were incubated for 12 h at 37 °C and 5% CO2. After the incubation period, the medium was discarded, and the chamber was washed with PBS. The cells were then fixed with 4% paraformaldehyde for 20 min. The upper chamber was subsequently soaked in crystal violet for 20 min, washed with PBS, and observed under a microscope for analysis.

The test system of series [4] is MDA-MB-231 cells. Kind of series: Transwell cell migration analysis. The class given is cell-based. The conditions noted are these: MDA-MB-231, 12 h. On the procedure:
as §2

Series [5] deals with MCF7 cells. Nature of the series: Scratch (wound-healing) assay. The class given is cell-based, human. The conditions noted are these: MCF7, 12 h. On the procedure: (§3) MCF7 and MDA‐MB‐231 cells were seeded in 6‐well plates and cultured overnight. Once the cell density reached 90%, a line was scratched along the center of the 6‐well plate and images were taken randomly in the scratch domain under a microscope. The cells in each well were then treated with peptides of varying concentrations for 12 h, after which images were taken again in the scratch domain. The formula used to calculate the scratch healing rate was as follows: Scratch healing rate (%) = [(Scratch area at 0 h – Scratch area at 12 h) […] Scratch area at 0 h] × 100%.

Series [6] deals with MDA-MB-231 cells. Kind of series: Scratch (wound-healing) assay. The class given is cell-based. The settings on record: MDA-MB-231, 12 h. On the procedure: as §3
The target of the next series is T1, Nur77-PPARγ complex (Homo sapiens, UniProt P22736).
T1 construct: expressed in transfected cells; host or cells: HEK293T
Nature of the series: NanoBiT assay of Nur77-PPARγ complex formation in HEK293T cells. It is filed as cell-based. The settings on record: 1 × 10^−5 M peptide, 1 h, n = 3. On the procedure:
HEK293T cells were seeded in a poly‐d‐lysine‐coated black 96‐well cell culture plate at 10 000 cells per well in 100 µL culture medium. The next day, the master mix of 100 ng receptor construct containing the PPARγ‐LargeBit and SmallBit‐Nur77 plasmids (w/w, 50 ng:50 ng) was diluted in Opti‐MEM Medium (Gibco, 11058‐021), then P3000 Reagent was added. Meanwhile, 0.15 µL Lipofectamine 3000 reagent (ThermoFisher, L3000015) was added to 5 µL Opti‐MEM Medium. Subsequently, diluted DNA was added to Lipofectamine 3000 reagent (V/V, 1:1) and incubated for 15 min at room temperature. A mixture containing the above plasmids and Lipofectamine 3000 was prepared and added to each well. After 24 h, the cells were treated with 1 × 10^−5 M peptides (TAT, T‐CY14, S‐CY14, and ST‐CY14) or variable concentrations of ST‐CY‐14 (0.1/0.2/0.5/1/2/5/10/20/40 × 10^−6 M) for 1 h. The culture medium was replaced with 90 µL Tyrode's solution (Solarbio, T1420). Then, 10 µL furimazine (5 × 10^−5 M) was added to each well and the luminescence signal was measured every 86 s for 1 h at 37 °C.

A short description of series [7]: CD spectroscopy, α-helicity. The settings on record: 5 × 10^−5 M peptide in H2O, 25 °C, 1 mm cuvette, 185-260 nm. It is filed as physicochemical. As for the experimental part:
The detection wavelengths of the peptides were 214 and 254 nm. Solvent A: H2O (containing 0.1% TFA) and solvent B: acetonitrile (containing 0.1% TFA) were used as solvents in linear gradient mixtures. Peptide purification was performed by semi‐preparative HPLC using an XBridge Prep C18 column (19 × 250 mm, 10 µm particle size, flow rate of 20 mL min^−1). Solvents A and B were the same as those in the peptide analysis procedure. The peptides were dissolved in H2O to a final concentration of 5 × 10^−5 M. The purified peptide was detected using a mass spectrometer (6410 Triple Quad LC/MS, Agilent, USA) (Table S2, Supporting Information). The solvent was 80% methanol and 20% H2O (containing 0.1% formic acid). The CD spectra were obtained with a 1 mm quartz cuvette on a BRIGHT TIME Chirasca (Applied Photophysics, Britain) spectropolarimeter with a scan wavelength between 185–260 nm at 25 °C. The helicity of each peptide was calculated by the literature equation.^[ [24] ^]

SMILES strings stand for the structures. Where a SMILES comes first, the peptide text is derived from it. Bridges are numbered along the chain shown (N, C = ends). [ ]: non-standard residue; d: D form. S5 = C=CCCC[C@](C)(N)C(=O)O

T1 sequence (P22736 whole entry, one chain of several): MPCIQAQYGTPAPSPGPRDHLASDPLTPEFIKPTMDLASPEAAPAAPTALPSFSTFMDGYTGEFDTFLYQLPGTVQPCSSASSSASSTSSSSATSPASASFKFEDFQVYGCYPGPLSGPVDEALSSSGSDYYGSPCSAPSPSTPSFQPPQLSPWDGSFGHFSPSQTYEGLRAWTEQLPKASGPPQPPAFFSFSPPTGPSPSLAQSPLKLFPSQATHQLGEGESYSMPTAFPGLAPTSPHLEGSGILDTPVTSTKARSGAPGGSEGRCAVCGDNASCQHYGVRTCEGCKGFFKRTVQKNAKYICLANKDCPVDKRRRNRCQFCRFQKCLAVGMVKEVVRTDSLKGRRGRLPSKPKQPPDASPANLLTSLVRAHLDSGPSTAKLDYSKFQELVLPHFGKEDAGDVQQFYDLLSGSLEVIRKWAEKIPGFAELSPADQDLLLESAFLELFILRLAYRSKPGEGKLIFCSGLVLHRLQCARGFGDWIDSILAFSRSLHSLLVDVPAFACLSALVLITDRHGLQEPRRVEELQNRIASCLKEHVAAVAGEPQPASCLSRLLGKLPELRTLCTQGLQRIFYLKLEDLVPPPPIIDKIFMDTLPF

Consider `CCCCCCCC(=O)c1c(O)cc(O)cc1CC(=O)OCC` [Csn-B, cytosporone B, reference compound], for which the “Solubility in PBS” value in the series “Solubility test in PBS” is “≈ 1 mg mL^−1”.

What is called half-life is how long it takes for the measured level to halve. For the compound `CC[C@H](C)[C@H](NC(=O)[C@@H](NC(=O)[C@H](CCCNC(=N)N)NC(=O)[C@H](CCCNC(=N)N)NC(=O)[C@H](Cc1ccccc1)NC(=O)[C@H](Cc1ccccc1)NC(=O)CNC(=O)[C@H](CCCCN)NC(=O)[C@H](CS)NC(=O)CNC(=O)[C@H](CCC(=O)O)NC(=O)[C@@H](N)CS)[C@@H](C)O)C(=O)N[C@@H](CCCNC(=N)N)C(=O)N[C@@H](Cc1ccc(O)cc1)C(=O)N[C@@H](Cc1ccc(O)cc1)C(=O)NCC(=O)N[C@@H](CCCNC(=N)N)C(=O)N[C@@H](CCCCN)C(=O)N[C@@H](CCCCN)C(=O)N[C@@H](CCCNC(=N)N)C(=O)N[C@@H](CCCNC(=N)N)C(=O)N[C@@H](CCC(N)=O)C(=O)N[C@@H](CCCNC(=N)N)C(=O)N[C@@H](CCCNC(=N)N)C(=O)N[C@@H](CCCNC(=N)N)C(N)=O` [T-CY14] (H-CEGCKGFFRRTIRYYGRKKRRQRRR-NH2), the half-life at 90.9 µM in the series on α-chymotrypsin amounted to 4.94 min. Further, the “CD36 and FABP4 protein expression (immunoblot)” value in the series on MCF7 cells [1] is “had some effect, but its efficacy was much lower”; in the series on MDA-MB-231 cells [2], “had some effect, but its efficacy was much lower”. For the same compound, the “Nur77 protein expression (immunoblot)” value in the series on MCF7 cells [1] and in the series on MDA-MB-231 cells [2] was “increase in Nur77 expression” each time. The Transwell transmigration entry in the series with MCF7 cells [3] and in the series with MDA-MB-231 cells [4] was “inhibited the transmigration” each time. The Scratch healing result with MCF7 cells [5] and in the series on MDA-MB-231 cells [6] was “suppressed the scratch healing” throughout.

Regarding `C[C@@H](O)[C@@H]1NC(=O)[C@H](CCCNC(=N)N)NC(=O)[C@H](CCCNC(=N)N)NC(=O)[C@@](C)(NC(=O)[C@H](Cc2ccccc2)NC(=O)CNC(=O)[C@H](CCCCN)NC(=O)[C@H](CS)NC(=O)CNC(=O)[C@H](CCC(=O)O)NC(=O)[C@@H](N)CS)CCCC=CCCC[C@@](C)(C(=O)N[C@@H](CCCNC(=N)N)C(=O)N[C@@H](Cc2ccc(O)cc2)C(N)=O)NC1=O` [S-CY14] (H-CEGCKGF[S5]RRT[S5]RY-NH2; staple 8-12), the “Effect on NanoBiT luminescence (Nur77-PPARγ complex)” value on Nur77-PPARγ complex is recorded as “minimal effects on the luminescence”. In series [7], the “α-Helicity (CD)” value came to 15.6%.

With `N=C(N)NCCC[C@H](NC(=O)[C@H](CCCNC(=N)N)NC(=O)[C@H](CCCNC(=N)N)NC(=O)[C@H](CCC(N)=O)NC(=O)[C@H](CCCNC(=N)N)NC(=O)[C@H](CCCNC(=N)N)NC(=O)[C@H](CCCCN)NC(=O)[C@H](CCCCN)NC(=O)[C@H](CCCNC(=N)N)NC(=O)CNC(=O)[C@@H](N)Cc1ccc(O)cc1)C(N)=O` [TAT, reference compound], on Nur77-PPARγ complex, the “Effect on NanoBiT luminescence (Nur77-PPARγ complex)” value is on record as “minimal effects on the luminescence”.
